The subject of one assay is L. plantarum CBC6. As to the kind of experiment: Deferred antagonism assay. The format is cell-based, Lactobacillus plantarum. The arrangement: key: + = Enhanced bioactivity relative to control; − = Bioactivity equal to or less than control; NA = no activity evident. Conditions: producing strain. In a few lines:
(§1)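 Well-diffusion testing of purified nisin variants in 0.005% acetic acid, serially diluted, 37° C overnight; AU/ml = reciprocal of last dilution with definite zone × 20. Deferred antagonism: overnight GM17 colonies overlaid with seeded soft agar (0.75%); zone = clearing diameter minus 5 mm.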

Assay [1] concerns Strep. agalactiae ATCC13813. As to the kind of experiment: Deferred antagonism assay. Conditions: producing strain, diameter of zone minus 5 mm, average of duplicates. The format is cell-based.
The next assay concerns Staph. aureus DPC5245. The experiment in a line: Deferred antagonism assay. Particulars: producing strain; diameter of zone minus 5 mm; average of duplicates; St. aureus DPC5245. Type of assay: cell-based. In a few lines:
(§2)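 Producer strains replicated on GM17 agar, grown overnight, then overlaid with soft agar (0.75% w/v) seeded with indicator strain. Zone size = clearing diameter minus 5 mm growth diameter, relative to NZ9800 pCI372nisA control; mean of duplicates.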

For assay [2], the system named is Staph. aureus ST528 (MRSA). As to the kind of experiment: Deferred antagonism assay. The format is cell-based. Conditions: producing strain, diameter of zone minus diameter of bacterial growth (5 mm), average of duplicates. In a few lines: as §2
In another assay the test system is L. monocytogenes CBC3. The experiment in a line: Deferred antagonism assay. The format is cell-based, Listeria monocytogenes. The arrangement: key: + = Enhanced bioactivity relative to control; − = Bioactivity equal to or less than control; NA = no activity evident. Conditions: producing strain; L. mono CBC3. The method, boiled down:
as §1

The next assay has as its system L. monocytogenes CBC2. As to the kind of experiment: Deferred antagonism assay. The format is cell-based, Listeria monocytogenes. The arrangement: key: + = Enhanced bioactivity relative to control; − = Bioactivity equal to or less than control; NA = no activity evident. Particulars: producing strain; L. mono CBC2. The method, boiled down:
as §1

The next assay relates to L. monocytogenes CBC1. The experiment in a line: Deferred antagonism assay. Conditions: producing strain; L. mono CBC1. Details: key: + = Enhanced bioactivity relative to control; − = Bioactivity equal to or less than control; NA = no activity evident. The format is cell-based, Listeria monocytogenes. The method, boiled down: as §1
For another assay, the system named is L. lactis CBC7. As to the kind of experiment: Deferred antagonism assay. Type of assay: cell-based. Details: key: + = Enhanced bioactivity relative to control; − = Bioactivity equal to or less than control; NA = no activity evident. Conditions: producing strain. The method, boiled down:
as §1

The test system of a further assay is L. lactis CBC8. As to the kind of experiment: Deferred antagonism assay. The format is cell-based. The arrangement: key: + = Enhanced bioactivity relative to control; − = Bioactivity equal to or less than control; NA = no activity evident. Conditions: producing strain. The method, boiled down: as §1
The test system of the next assay is S. aureus CBC4. The experiment in a line: Deferred antagonism assay. Particulars: producing strain. Details: key: + = Enhanced bioactivity relative to control; − = Bioactivity equal to or less than control; NA = no activity evident. The format is cell-based. The method, boiled down: as §1
In the next assay the test system is indicator strains. The experiment in a line: Deferred antagonism assays, various indicator strains (summary). Type of assay: cell-based. Conditions: for Strain(s) against which the derivative (producing strain) displays enhanced bioactivity: relative to nisin A-producing control, value = strains listed; for bioactivity of the producing strain, in words: in general / against the strains tested. In a few lines:
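Producer strains were replicated on GM17 or GM17 x-gal agar, grown overnight, then overlaid with GM17, BHI, TS or MH soft agar (0.75% w/v) seeded with the indicator strain. Zone size was taken as the clearing diameter minus the diameter of bacterial growth (5 mm).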

In a further assay the test system is C. sporogenes CBC5. As to the kind of experiment: Deferred antagonism assay. The arrangement: key: + = Enhanced bioactivity relative to control; − = Bioactivity equal to or less than control; NA = no activity evident. Conditions: producing strain. The format is cell-based, Clostridium sporogenes.

Entries after “also recorded” stand apart in the source; their conditions may differ. Ends that are not written are not given here.

Consider “NisinA K22G (ITSISLCTPGCKTGALMGCNMGTATCHCSIHVSK; cysteine pairing not given here; also: lantibiotic nisin-A; UniProt P13068 24-57, looked up, variant K22G) [nisin A derivative, hinge substitution K22G]”, for which the “Bioactivity relative to control” value is listed as “−” with L. plantarum CBC6; “−” in the assay with L. monocytogenes CBC3; “−” in the assay on L. monocytogenes CBC2; “−” with L. monocytogenes CBC1; “+” with L. lactis CBC7; “+” in the assay on L. lactis CBC8. Besides, the “Bioactivity relative to control” value in the assay with S. aureus CBC4 and in the assay on C. sporogenes CBC5 was “−” each time. For the same substance, the entries for the “zone size relative to that of the NZ9800 pCI372nisA control” value (“zone size relative to that” below) (in [1]; with Staph. aureus DPC5245; in assay [2]) were 126%, 112% and 118.5%, respectively. Also, the “relative bioactivity against the indicators of Table 6” value in the assay with indicator strains (Staph. aureus ST528, DPC5245 and Strep. agalactiae ATCC 13813 taken together) was “approximately 120%”. Also, the “Strain(s) against which the derivative (producing strain) displays enhanced bioactivity” value (“Strain(s) against which the derivative” below) in the assay with indicator strains is “L. lactis CBC7 and CBC8; also recorded: DPC5425, Strep. agalactiae ATCC 13813”.

As to “NisinA K22L (ITSISLCTPGCKTGALMGCNMLTATCHCSIHVSK; not fully specified; cysteine pairing not given here; also: lantibiotic nisin-A; UniProt P13068 24-57, looked up, variant K22L) [nisin A derivative, hinge substitution K22L]”, the “Bioactivity relative to control” value is given as “−” in the assay on L. plantarum CBC6; “−” with L. monocytogenes CBC3; “−” with L. monocytogenes CBC2; “−” in the assay with L. monocytogenes CBC1; “−” with L. lactis CBC7; “+” in the assay with L. lactis CBC8. In addition, the “Bioactivity relative to control” value with S. aureus CBC4 and in the assay with C. sporogenes CBC5 was “−” throughout. The entries for the “zone size relative to that” value (in [1]; in the assay on Staph. aureus DPC5245; in assay [2]) were 108%, 89% and 93.5%, respectively. Besides, in the assay on indicator strains, the “bioactivity of the producing strain, in words” value (“bioactivity … in words” below) is listed as “retention of relatively high levels of bioactivity”. For the same substance, the “Strain(s) against which the derivative” value with indicator strains is “L. lactis CBC8”.

For “NisinA K22M (ITSISLCTPGCKTGALMGCNMMTATCHCSIHVSK; cysteine pairing not given here; also: lantibiotic nisin-A; UniProt P13068 24-57, looked up, variant K22M) [nisin A derivative, hinge substitution K22M]”, the “Bioactivity relative to control” value in the assay with L. plantarum CBC6 is on record as “−”; in the assay on L. monocytogenes CBC3, “−”; in the assay with L. monocytogenes CBC2, “−”; in the assay with L. monocytogenes CBC1, “−”; with L. lactis CBC7, “−”; in the assay on L. lactis CBC8, “+”. The “Bioactivity relative to control” value in the assay on S. aureus CBC4 and with C. sporogenes CBC5 was “−” each time. The “zone size relative to that” value in assay [1] is recorded as 104%; in the assay on Staph. aureus DPC5245, 79.5%; in assay [2], 77%. In the assay with indicator strains, the “bioactivity … in words” value is “retention of relatively high levels of bioactivity”. For the same substance, the “Strain(s) against which the derivative” value in the assay on indicator strains is “L. lactis CBC8”.

As for “NisinA K22Q (ITSISLCTPGCKTGALMGCNMQTATCHCSIHVSK; not fully specified; also: lantibiotic nisin: dehydrated residues and thioether rings not placed; UniProt P13068 24-57, looked up, variant K22Q) [nisin A derivative, hinge substitution K22Q]”, the “Bioactivity relative to control” value in the assay with L. plantarum CBC6 was “−”; in the assay with L. monocytogenes CBC3 it was “−”; in the assay on L. monocytogenes CBC2, “−”; in the assay with L. monocytogenes CBC1, “−”; in the assay with L. lactis CBC7 it was “−”; in the assay on L. lactis CBC8 it was “+”. In addition, the “Bioactivity relative to control” value with S. aureus CBC4 and with C. sporogenes CBC5 was “−” throughout. For the same substance, the “zone size relative to that” value in assay [1] is 82%; with Staph. aureus DPC5245, 77%; in [2], 82%. The “bioactivity … in words” value with indicator strains was “slightly diminished bioactivity”. The “Strain(s) against which the derivative” value in the assay with indicator strains was “L. lactis CBC8”.

As to NisinA K22V, the “Bioactivity relative to control” value was “−” in the assay on L. plantarum CBC6; “−” in the assay on L. monocytogenes CBC3; “+” in the assay with L. monocytogenes CBC2; “−” in the assay with L. monocytogenes CBC1; “−” in the assay on L. lactis CBC7; “+” in the assay with L. lactis CBC8. For the same substance, the “Bioactivity relative to control” value with S. aureus CBC4 and in the assay with C. sporogenes CBC5 was “−” in each case. Besides, the figures for the “zone size relative to that” value (in assay [1]; in the assay on Staph. aureus DPC5245; in assay [2]) were 126%, 113% and 107%, respectively. The “Strain(s) against which the derivative” value in the assay on indicator strains is “L. monocytogenes CBC2 and L. lactis CBC8”.

Consider “NisinA M21A (ITSISLCTPGCKTGALMGCNAKTATCHCSIHVSK; not fully specified; also: lantibiotic nisin: dehydrated residues and thioether rings not placed; UniProt P13068 24-57, looked up, variant M21A) [nisin A derivative, hinge substitution M21A]”, for which the “Bioactivity relative to control” value is “−” in the assay with L. plantarum CBC6; “−” with L. monocytogenes CBC3; “−” in the assay with L. monocytogenes CBC2; “+” in the assay with L. monocytogenes CBC1; “+” with L. lactis CBC7; “+” in the assay with L. lactis CBC8. For the same substance, the “Bioactivity relative to control” value in the assay on S. aureus CBC4 and with C. sporogenes CBC5 was “−” in each case. Also, the “zone size relative to that” value in assay [1] turned out to be 105%; in the assay with Staph. aureus DPC5245, 135%; in [2], 132.5%. In addition, in the assay with indicator strains, the “Strain(s) against which the derivative” value is “L. monocytogenes CBC1 and L. lactis CBCT and CBC8; also recorded: L. monocytogenes CBC1 , and L. lactis CBC7 and CBC8; also recorded: L. monocytogenes CBC1, L. lactis CBC7, CBC8, S. aureus”.

For “NisinA M21K (ITSISLCTPGCKTGALMGCNKKTATCHCSIHVSK; not fully specified; also: lantibiotic nisin: dehydrated residues and thioether rings not placed; UniProt P13068 24-57, looked up, variant M21K) [nisin A derivative, hinge substitution M21K]”, the “Bioactivity relative to control” value with L. plantarum CBC6, in the assay on L. monocytogenes CBC3, in the assay on L. monocytogenes CBC2, in the assay on L. monocytogenes CBC1, with L. lactis CBC7 and with L. lactis CBC8 was “−” throughout. The “Bioactivity relative to control” value with S. aureus CBC4 and with C. sporogenes CBC5 was “+” each time. Also, the results for the “zone size relative to that” value (in assay [1]; in the assay with Staph. aureus DPC5245; in [2]) were 91%, 104% and 89%, respectively. Besides, the “bioactivity … in words” value in the assay with indicator strains is listed as “close to wild-type bioactivities”. Also, in the assay with indicator strains, the “Strain(s) against which the derivative” value is “Staph. aureus CBC4 and C. sporogenes CBC5; also recorded: S. aureus CBC 4 and C. sporogenes CBC5; also recorded: S. aureus CBC4, C. sporogenes CBC5”.

Values taken from patent US8987193B2, “Nisin derivatives and the use thereof” (University College Cork—National University of Ireland, Cork, priority 2008, dated 2015).
